Measured values reported in BindingDB's records for patent US20240116873 (JIANGSU CHIATAI QINGJIANG PHARMACEUTICAL CO., LTD., 2024).

Legend:
[1] = molecular target: T1, Solute carrier family 22 member 12 (Homo sapiens, UniProt Q96S37); test: Inhibitory Assay
T1 sequence (Q96S37 whole entry): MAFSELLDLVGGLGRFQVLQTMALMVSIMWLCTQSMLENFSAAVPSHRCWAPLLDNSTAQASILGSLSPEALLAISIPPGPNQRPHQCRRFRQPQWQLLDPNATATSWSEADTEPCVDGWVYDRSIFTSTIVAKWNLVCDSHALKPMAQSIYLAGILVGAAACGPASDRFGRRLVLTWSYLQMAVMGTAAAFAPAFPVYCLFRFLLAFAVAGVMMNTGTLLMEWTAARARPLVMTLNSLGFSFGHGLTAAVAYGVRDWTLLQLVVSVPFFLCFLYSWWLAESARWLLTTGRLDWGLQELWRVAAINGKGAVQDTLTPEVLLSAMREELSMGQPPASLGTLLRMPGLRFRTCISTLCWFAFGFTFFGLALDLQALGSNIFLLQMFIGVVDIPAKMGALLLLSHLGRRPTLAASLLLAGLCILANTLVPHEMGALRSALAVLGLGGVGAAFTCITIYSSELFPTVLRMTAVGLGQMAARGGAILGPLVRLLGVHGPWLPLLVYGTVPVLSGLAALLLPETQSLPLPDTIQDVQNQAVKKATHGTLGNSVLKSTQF

[2] = molecular target: T2, Solute carrier family 22 member 11 (Homo sapiens, UniProt Q9NSA0); test: Inhibitory Assay
T2 sequence (Q9NSA0 whole entry): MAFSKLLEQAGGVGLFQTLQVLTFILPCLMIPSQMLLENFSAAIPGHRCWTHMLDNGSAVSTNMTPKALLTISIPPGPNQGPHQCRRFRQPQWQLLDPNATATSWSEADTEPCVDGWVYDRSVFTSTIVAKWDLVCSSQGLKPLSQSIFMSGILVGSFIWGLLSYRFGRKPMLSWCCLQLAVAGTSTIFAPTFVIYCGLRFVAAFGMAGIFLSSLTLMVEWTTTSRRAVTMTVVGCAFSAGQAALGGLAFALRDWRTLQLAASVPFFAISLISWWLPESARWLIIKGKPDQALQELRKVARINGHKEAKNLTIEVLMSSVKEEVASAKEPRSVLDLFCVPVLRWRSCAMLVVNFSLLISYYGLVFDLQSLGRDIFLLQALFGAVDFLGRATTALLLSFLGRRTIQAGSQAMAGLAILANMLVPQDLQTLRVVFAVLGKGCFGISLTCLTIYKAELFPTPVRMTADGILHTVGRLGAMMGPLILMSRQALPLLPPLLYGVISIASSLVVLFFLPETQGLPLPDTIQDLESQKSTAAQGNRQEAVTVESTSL

Row | Structure (SMILES) | IC50 [1] | IC50 [2]
1 | CC(C)(Sc1ccnc2ccc(F)cc12)C(=O)NS(C)(=O)=O [US20240116873, Compound B] | 2.79 µM | 
2 | CC(C)(Sc1ccnc2ccc(Br)cc12)C(=O)NS(=O)(=O)c1cccs1 [US20240116873, Compound E] | 3.42 µM | 
3 | CC(C)(Sc1ccnc2ccc(C(F)(F)F)cc12)C(=O)NS(C)(=O)=O [US20240116873, Compound D] |  | 83.8 µM
4 | Cc1ccc2nccc(SC(C)(C)C(=O)NS(C)(=O)=O)c2c1 [US20240116873, Compound A] | 3.15 µM | 
5 | CCS(=O)(=O)NC(=O)C(C)(C)Sc1ccnc2ccc(Br)cc12 [US20240116873, Compound C] | 1.18 µM | 
